Data published in patent publication US20210198256A1, “COMPOUNDS FOR THE DEGRADATION OF BRD9 OR MTH1” (C4 Therapeutics, Inc., priority 2018, published 2021).

Test system: SMARTCAR-MTH1-wt-HiBiT (Jurkat.7 cells)
Assay: HiBit Lytic Assay (HiBit DC50, MTH1 degraders of Table 2)
Type: cell-based, human
Conditions: Jurkat.7 SMARTCAR-MTH1-wt-HiBiT cells, compound treatment time 4 hr, 11-point half log dose response
Procedure: Example 3. HiBit Lytic Assay
• Compound is made at 10 mM, half log dilution, 11 points. • MDR plates can also be ordered from Frontier with same format. • 1. Barcode a 384LDV plate (384-well Low Dead Volume Microplate, Labcyte LP-0200) (Echo compatible) on the left side. • 2. Transfer 13.6 μL of 10 mM compound into column 1 of LDV plate (Labcyte). • 3. Fill column 2-11 and column 23 of MDR plate with 9.30 μL of DMSO. • 4. Serial dilute 3.16 fold from column 1 to 2 by transferring 4.30 μL from column 1 to column 2, and so on to column 11. *Change tip in every dilution to prevent compound carryover effect! • 5. Seal the plate with Plate Sealer, then store the MDR plate at room temperature for short term storage and in −20° C. for long term storage.
• Cells are treated with 30 nL of each compound at 10 mM, half log dilution, 11 points with final concentration of 1000 nM or 833 nM, half log dilution, 11 points, in duplicates. Final DMSO concentration is 0.1%. • 1. Barcode the plates made on the left side and label the plates with silver marker. • 2. Dispense with the following scheme: • a. 30 nL of compound into corresponding wells in cell plates via Echo550 with “MDR32_HiBiT16_30 nL”. Top concentration will be 1000 nM. • 3. Seal the plate with Plate Sealer.
• Cells are dispensed at density specified in Cell Line Table in 384-well microplate. • 1. Culture cells to between 50-80% of confluence in sterile culture flasks of appropriate size. • 2. For Adherent Cell Lines: • a. Aspirate off growth media in culture flask, and wash off the Phenol Red media with 5 mL of 1×PBS. • b. Add 5 mL of Trypsin to the cells, incubate at 37° C. for 5 minutes. • c. Add 5 mL of growth media to the trypsinzed cells, and resuspend. • 3. Remove 10 μL of cells, and resuspend the cells with 10 μL of Trypan Blue. Insert the solution to counting chamber slide, and count the cells via cell counter. • 4. Adjust the cell concentration to specified plating density, and strain the cells with cell strainer. • 5. Dispense the cells via E1-ClipTip™ Electronic Multichannel Pipettes or Multidrop™ Combi Reagent Dispenser with Standard tube dispensing cassette: • a. Prime the cassette with 10-20 mL of ddH2O. • b. Prime the cassette with 10-20 mL of cells. • c. Dispense the cells at low speed for 30 μL/well in Corning® 384 Well Low Flange Black Flat Bottom Polystyrene TC-Treated Microplate. • d. Wash the cassette with 10-20 mL of ddH2O, follow by 10-20 mL of 70% EtOH, then again with 10-20 mL of ddH2O. • 6. Incubate the plates at 37° C.×compound treatment time.
• 1. If not already, bring Nano-Glo® HiBiT Lytic Buffer to room temperature. • 2. Determine the amount of reagent needed. A volume of reagent equal to the volume of media in the well should be added (i.e. 30 μL of cells will need 30 μL of HiBiT Lytic reagent). • 3. Into a given volume of buffer, dilute the substrate 50-fold and the LgBiT protein 100-fold. For example, to make 10 ml of reagent, add the following: • 10 ml Nano-Glo® HiBiT Lytic Buffer • 200 μl Nano-Glo® HiBiT Lytic Substrate • 100 μl LgBiT Protein • The reagent should be reconstituted immediately before use. However, once reconstituted, it should take about 4 hours for the activity to decrease 10%. • 4. Cool down the cell plate to room temperature for 10-15 minutes without lid. • 5. Dispense the HiBiT Lytic Reagent via E1-ClipTip™ Electronic Multichannel Pipettes or Multidrop™ Combi Reagent Dispenser with Standard tube dispensing cassette: • a. Prime the cassette with 10-20 mL of ddH2O. • b. Prime the cassette with 10-20 mL of CTG 2.0. • c. Dispense the HiBiT Lytic Reagent at medium speed for 30 μL/well in cell plate to column 1-23 (column 24 will be used as plate background). • d. Wash the cassette with 10-20 mL of ddH2O, follow by 10-20 mL of 70% EtOH, then again with 10-20 mL of ddH2O. • 6. Incubate the cell plate at room temperature for 10 minutes without lid. • 7. […]

Question: With CNC(=O)c1cnc2ccc(N3CCC(C(=O)NCCCCNC(=O)COc4cccc5c4C(=O)N(C4CCC(=O)NC4=O)C5=O)CC3)cc2c1Nc1ccccc1 (stereo not shown) [Compound 347, 4-anilino-6-[4-[4-[[2-[2-(2,6-dioxo-3-piperidyl)-1,3-dioxo-isoindolin-4-yl]oxyacetyl]amino]butylcarbamoyl]-1-piperidyl]-N-methyl-quinoline-3-carboxamide] as the molecule, how does the DC50 read?
Answer: < 100 nM

Question: With CNC(=O)c1cnc2ccc(-c3ccc(C(=O)NCCCCNC(=O)COc4cccc5c4C(=O)N(C4CCC(=O)NC4=O)C5=O)c(F)c3)cc2c1Nc1ccccc1 (stereo not shown) [Compound 351, 4-anilino-6-[4-[4-[[2-[2-(2,6-dioxo-3-piperidyl)-1,3-dioxo-isoindolin-4-yl]oxyacetyl]amino]butylcarbamoyl]-3-fluoro-phenyl]-N-methyl-quinoline-3-carboxamide] as the molecule, how does the DC50 read?
Answer: < 100 nM

Question: CNC(=O)c1cnc2ccc(-c3ccc(C(=O)NCCCCNC(=O)CNc4cccc5c4C(=O)N(C4CCC(=O)NC4=O)C5=O)c(C)c3)cc2c1Nc1ccccc1 (stereo not shown) [Compound 353, 4-anilino-6-[4-[4-[[2-[[2-(2,6-dioxo-3-piperidyl)-1,3-dioxo-isoindolin-4-yl]amino]acetyl]amino]butylcarbamoyl]-3-methyl-phenyl]-N-methyl-quinoline-3-carboxamide] was tested. Which DC50 did it give?
Answer: < 100 nM

Question: Which DC50 does the source give for CNC(=O)c1cnc2ccc(-c3ccc(C(=O)NCCCCNC(=O)COc4cccc5c4C(=O)N(C4CCC(=O)NC4=O)C5=O)c(C)c3)cc2c1Nc1ccccc1 (stereo not shown) [Compound 354, 4-anilino-6-[4-[4-[[2-[2-(2,6-dioxo-3-piperidyl)-1,3-dioxo-isoindolin-4-yl]oxyacetyl]amino]butylcarbamoyl]-3-methyl-phenyl]-N-methyl-quinoline-3-carboxamide] here?
Answer: < 100 nM

Question: How did the DC50 turn out when CNC(=O)c1cnc2ccc(-c3ccc(C(=O)NCCCCn4cc(CNc5cccc6c5C(=O)N(C5CCC(=O)NC5=O)C6=O)nn4)cc3)cc2c1Nc1ccccc1 (stereo not shown) [Compound 356, 4-anilino-6-[4-[4-[4-[[[2-(2,6-dioxo-3-piperidyl)-1,3-dioxo-isoindolin-4-yl]amino]methyl]triazol-1-yl]butylcarbamoyl]phenyl]-N-methyl-quinoline-3-carboxamide] was run?
Answer: < 100 nM

Question: With CNC(=O)c1cnc2ccc(-c3ccc(C(=O)NCCCCNC(=O)COc4cccc5c4C(=O)N(C4CCC(=O)NC4=O)C5=O)nc3)cc2c1Nc1ccccc1 (stereo not shown) [Compound 357, 4-anilino-6-[6-[4-[[2-[2-(2,6-dioxo-3-piperidyl)-1,3-dioxo-isoindolin-4-yl]oxyacetyl]amino]butylcarbamoyl]-3-pyridyl]-N-methyl-quinoline-3-carboxamide] as the molecule, how does the DC50 read?
Answer: < 100 nM

Question: Which DC50 does the source give for CNC(=O)c1cnc2ccc(-c3ccc(C(=O)NCCCCNC(=O)CNc4cccc5c4C(=O)N(C4CCC(=O)NC4=O)C5=O)nc3)cc2c1Nc1ccccc1 (stereo not shown) [Compound 358, 4-anilino-6-[6-[4-[[2-[[2-(2,6-dioxo-3-piperidyl)-1,3-dioxo-isoindolin-4-yl]amino]acetyl]amino]butylcarbamoyl]-3-pyridyl]-N-methyl-quinoline-3-carboxamide] here?
Answer: < 100 nM

Question: How did the DC50 turn out when CNC(=O)c1cnc2ccc(-c3ccc(C(=O)NCCCCN4CCN(c5cccc6c5C(=O)N(C5CCC(=O)NC5=O)C6=O)CC4)cc3)cc2c1Nc1ccccc1 (stereo not shown) [Compound 359, 4-anilino-6-[4-[4-[4-[2-(2,6-dioxo-3-piperidyl)-1,3-dioxo-isoindolin-4-yl]piperazin-1-yl]butylcarbamoyl]phenyl]-N-methyl-quinoline-3-carboxamide] was run?
Answer: < 100 nM

Question: Which DC50 does the source give for CNC(=O)c1cnc2ccc(-c3cnn(CCCCCCNC(=O)COc4cccc5c4C(=O)N(C4CCC(=O)NC4=O)C5=O)c3)cc2c1Nc1ccccc1 (stereo not shown) [Compound 360, 4-anilino-6-[1-[6-[[2-[2-(2,6-dioxo-3-piperidyl)-1,3-dioxo-isoindolin-4-yl]oxyacetyl]amino]hexyl]pyrazol-4-yl]-N-methyl-quinoline-3-carboxamide] here?
Answer: < 100 nM

Question: With CNC(=O)c1cnc2ccc(-c3ccc(C(=O)NCCCNC(=O)C(C)Nc4cccc5c4C(=O)N(C4CCC(=O)NC4=O)C5=O)cc3)cc2c1Nc1ccccc1 (stereo not shown) [Compound 363, 4-anilino-6-[4-[3-[2-[[2-(2,6-dioxo-3-piperidyl)-1,3-dioxo-isoindolin-4-yl]amino]propanoylamino]propylcarbamoyl]phenyl]-N-methyl-quinoline-3-carboxamide] as the molecule, how does the DC50 read?
Answer: < 100 nM

Question: CNC(=O)c1cnc2ccc(-c3ccc(NCCCCNC(=O)CNc4cccc5c4C(=O)N(C4CCC(=O)NC4=O)C5=O)nc3)cc2c1Nc1ccccc1 (stereo not shown) [Compound 365, 4-anilino-6-[6-[4-[[2-[[2-(2,6-dioxo-3-piperidyl)-1,3-dioxo-isoindolin-4-yl]amino]acetyl]amino]butylamino]-3-pyridyl]-N-methyl-quinoline-3-carboxamide] was tested. Which DC50 did it give?
Answer: < 100 nM

Question: How did the DC50 turn out when CNC(=O)c1cnc2ccc(-c3ccc(C(=O)NCCCCNC(=O)C(C)Nc4cccc5c4C(=O)N(C4CCC(=O)NC4=O)C5=O)c(F)c3)cc2c1Nc1ccccc1 (stereo not shown) [Compound 372, 4-anilino-6-[4-[4-[2-[[2-(2,6-dioxo-3-piperidyl)-1,3-dioxo-isoindolin-4-yl]amino]propanoylamino]butylcarbamoyl]-3-fluoro-phenyl]-N-methyl-quinoline-3-carboxamide] was run?
Answer: < 100 nM

Question: For CNC(=O)c1cnc2ccc(-c3ccc(C(=O)NCCCCNC(=O)CCc4cccc5c4CN(C4CCC(=O)NC4=O)C5=O)cc3)cc2c1Nc1ccccc1 (stereo not shown) [Compound 374, 4-anilino-6-[4-[4-[3-[2-(2,6-dioxo-3-piperidyl)-1-oxo-isoindolin-4-yl]propanoylamino]butylcarbamoyl]phenyl]-N-methyl-quinoline-3-carboxamide], which DC50 is on record?
Answer: < 100 nM

Question: CNC(=O)c1cnc2cc(C(F)(F)F)c(-c3ccc(C(=O)NCCCCNC(=O)CNc4cccc5c4C(=O)N(C4CCC(=O)NC4=O)C5=O)c(F)c3)cc2c1Nc1ccccc1 (stereo not shown) [Compound 375, 6-(4-((4-(2-((2-(2,6-dioxopiperidin-3-yl)-1,3-dioxoisoindolin-4-yl)amino)acetamido)butyl)carbamoyl)-3-fluorophenyl)-N-methyl-4-(phenylamino)-7-(trifluoromethyl)quinoline-3-carboxamide] was tested. Which DC50 did it give?
Answer: < 100 nM

Question: How did the DC50 turn out when CNC(=O)c1cnc2cc(OC)c(-c3ccc(C(=O)NCCCCn4cc(CNc5cccc6c5C(=O)N(C5CCC(=O)NC5=O)C6=O)nn4)cn3)cc2c1Nc1ccccc1 (stereo not shown) [Compound 376, 6-(5-((4-(4-(((2-(2,6-dioxopiperidin-3-yl)-1,3-dioxoisoindolin-4-yl)amino)methyl)-1H-1,2,3-triazol-1-yl)butyl)carbamoyl)pyridin-2-yl)-7-methoxy-N-methyl-4-(phenylamino)quinoline-3-carboxamide] was run?
Answer: < 100 nM

Question: For CNC(=O)c1cnc2ccc(-c3ccc(C(=O)NCCCCCCCCc4cccc5c4CN(C4CCC(=O)NC4=O)C5=O)cc3)cc2c1Nc1ccccc1 (stereo not shown) [Compound 378, 4-anilino-6-[4-[8-[2-(2,6-dioxo-3-piperidyl)-1-oxo-isoindolin-4-yl]octylcarbamoyl]phenyl]-N-methyl-quinoline-3-carboxamide], which DC50 is on record?
Answer: < 100 nM
